Data: the supplement of paper PMC11061612

Tests used:
Assay in all cases: combination Emax (second highest fraction inhibited in the dose matrix, 72 h); higher = more inhibition; extreme values may be limits of the assay
[1] = test system: 697 (B-Lymphoblastic Leukemia)
Procedure, shortened: (§1)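 Cell lines in DMEM/F12 or RPMI with 10% FBS were plated in 1536-well plates, held 24 hours at 37°C, 5% CO2, then given two-drug dose matrices for 72 hours (DMSO typically 0.2%). Viability was read by CellTiter-Glo 2.0 luminescence and scaled as inhibition from 0 (vehicle wells) to 1 (blank wells). Combination Emax is the second-highest inhibition in the matrix; Bliss excess is observed combination effect minus expected EA + EB − EA·EB, EA and EB being single-agent effects.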

[2] = test system: CTV-1 (T-Lymphoblastic Leukemia)
Procedure, shortened: as §1

[3] = test system: DB (B-Cell Non-Hodgkin's Lymphoma)
Procedure, shortened: as §1

[4] = test system: DMS-273 (Small Cell Lung Carcinoma)
Procedure, shortened: as §1

[5] = test system: DSH1 (Bladder Carcinoma)
Procedure, shortened: as §1

[6] = test system: IGR-1 (Melanoma)
Procedure, shortened: as §1

[7] = test system: KARPAS-1106P (B-Cell Non-Hodgkin's Lymphoma)
Procedure, shortened: as §1

[8] = test system: KATOIII (Gastric Carcinoma)
Procedure, shortened: as §1

[9] = test system: MFH-ino (Other Solid Carcinomas)
Procedure, shortened: as §1

[10] = test system: NCI-H1299 (Non-Small Cell Lung Carcinoma)
Procedure, shortened: as §1

[11] = test system: NCI-H1694 (Small Cell Lung Carcinoma)
Procedure, shortened: as §1

[12] = test system: NCI-H1781 (Lung Adenocarcinoma)
Procedure, shortened: as §1

[13] = test system: NCI-H2595 (Mesothelioma)
Procedure, shortened: as §1

[14] = test system: OCI-AML2 (Acute Myeloid Leukemia)
Procedure, shortened: as §1

[15] = test system: RH-1 (Ewing's Sarcoma)
Procedure, shortened: as §1

[16] = test system: SK-N-FI (Neuroblastoma)
Procedure, shortened: as §1

[17] = test system: SW1990 (Pancreatic Carcinoma)
Procedure, shortened: as §1

[18] = test system: SW756 (Cervical Carcinoma)
Procedure, shortened: as §1

[19] = test system: SW780 (Bladder Carcinoma)
Procedure, shortened: as §1

[20] = test system: U-266 (Plasma Cell Myeloma)
Procedure, shortened: as §1

Row | SMILES | combination Emax [1] | combination Emax [2] | combination Emax [3] | combination Emax [4] | combination Emax [5] | combination Emax [6] | combination Emax [7] | combination Emax [8] | combination Emax [9] | combination Emax [10] | combination Emax [11] | combination Emax [12] | combination Emax [13] | combination Emax [14] | combination Emax [15] | combination Emax [16] | combination Emax [17] | combination Emax [18] | combination Emax [19] | combination Emax [20]
1 | CCN(CCO)CCCOc1ccc2c(Nc3cc(CC(=O)Nc4cccc(F)c4)[nH]n3)ncnc2c1 [AZD2811] + C=CCn1c(=O)c2cnc(Nc3ccc(N4CCN(C)CC4)cc3)nc2n1-c1cccc(C(C)(C)O)n1 [AZD1775] (first compound max 1 µM, partner max 1 µM) | 1 | 0.969 | 0.867 | 0.827 | 0.324 | 0.314 | 0.842 | 0.221 | 0.183 | 0.763 | 0.374 | 0.819 | 0.0802 | 0.991 | 1 | 0.666 | 0.458 | 0.407 | 0.186 | 0.605
2 | CC1(C)CCC(CN2CCN(c3ccc(C(=O)NS(=O)(=O)c4ccc(NCC5CCOCC5)c([N+](=O)[O-])c4)c(Oc4cnc5[nH]ccc5c4)c3)CC2)=C(c2ccc(Cl)cc2)C1 [Venetoclax] + Cn1cnc2c(F)c(Nc3ccc(Br)cc3Cl)c(C(=O)NOCCO)cc21 [Selumetinib] (first compound max 1 µM, 7x7, partner max 3 µM) | 1 | 0.293 | 0.914 | 0.214 | 0.341 | 0.301 | 0.476 | 0.186 | 0.201 | 0.202 | 0.324 | 0.166 | 0.129 | 1 | 0.0877 | 0.471 | 0.49 | 0.225 | 0.227 | 0.722
3 | CN(CCO)CC[C@H](CSc1ccccc1)Nc1ccc(S(=O)(=O)NC(=O)c2ccc(N3CCC([C@@H](O)c4ccccc4-c4ccc(Cl)cc4)CC3)cc2)cc1S(=O)(=O)C(F)(F)F [AZD4320] + C1CN(CCC1(C(=O)N[C@@H](CCO)C2=CC=C(C=C2)Cl)N)C3=NC=NC4=C3C=CN4 [Capivasertib] (first compound max 1 µM, 7x7, partner max 3 µM) | 1 | 0.404 | 0.899 | 0.713 | 0.686 | 0.256 | 0.16 | 0.128 | 0.182 | 0.129 | 0.763 | 0.341 | 0.151 | 1 | 0.394 | 0.228 | 0.0829 | 0.143 | 0.578 | 0.577
4 | Cc1c2c(nn1C)CSCc1cc(n(C)n1)CSc1cc(c3ccccc3c1)OCCCc1c(C(=O)O)n(C)c3c-2c(Cl)ccc13 [AZD5991] + CCN(CCO)CCCOc1ccc2c(Nc3cc(CC(=O)Nc4cccc(F)c4)[nH]n3)ncnc2c1 [AZD2811] (first compound max 1 µM, 7x7, partner max 1 µM) | 1 | 0.278 | 0.987 | 0.993 | 0.839 | 0.338 | 0.955 | 0.116 | 0.251 | 0.406 | 0.985 | 0.875 | 0.324 | 1 | 0.956 | 0.335 | 0.298 | 0.204 | 0.213 | 0.945
5 | COc1nnc2ccc(N3CCC(c4ccc(OCCN5CCN(C)C(=O)[C@H]5C)cc4)CC3)nn12 [AZD5153] + Cn1cnc2c(F)c(Nc3ccc(Br)cc3Cl)c(C(=O)NOCCO)cc21 [Selumetinib] (first compound max 1 µM, 7x7, partner max 10 µM) | 1 | 0.99 | 0.761 | 0.71 | 0.683 | 0.938 | 0.699 | 0.424 | 0.636 | 0.729 | 0.234 | 0.327 | 0.364 | 1 | 0.315 | 0.844 | 0.265 | 0.534 | 0.537 | 0.542
6 | CN(CCO)CC[C@H](CSc1ccccc1)Nc1ccc(S(=O)(=O)NC(=O)c2ccc(N3CCC([C@@H](O)c4ccccc4-c4ccc(Cl)cc4)CC3)cc2)cc1S(=O)(=O)C(F)(F)F [AZD4320] + Cc1cc2ncnn2cc1Nc1ncc2c(n1)n(C1CCOCC1)c(=O)n2C [AZD7648] (first compound max 1 µM, 7x7, partner max 10 µM) | 1 | 0.315 | 0.976 | 0.398 | 0.586 | 0.33 | 0.313 | 0.151 | 0.161 | 0.268 | 0.76 | 0.258 | 0.12 | 1 | 0.438 | 0.201 | 0.0867 | 0.112 | 0.484 | 0.622
7 | COc1cccc(OCCCN)c1-c1cc(Nc2cnc(C#N)cn2)n[nH]1 [Prexasertib] + C[C@@H]1COCCN1C2=NC(=NC(=C2)C3(CC3)[S@](=N)(=O)C)C4=C5C=CNC5=NC=C4 [AZD6738] (first compound max 1 µM, 7x7, partner max 10 µM) | 1 | 0.948 | 0.748 | 0.916 | 0.852 | 0.566 | 0.905 | 0.586 | 0.572 | 0.732 | 0.823 | 0.486 | 0.141 | 1 | 1 | 0.915 | 0.695 | 0.426 | 0.201 | 0.65
8 | NC1(C(=O)N[C@@H](CCO)c2ccc(Cl)cc2)CCN(c2ncnc3[nH]ccc23)CC1 [Capivasertib] + CC(=O)c1c(C)c2cnc(Nc3ccc(N4CCNCC4)cn3)nc2n(C2CCCC2)c1=O [Palbociclib] (first compound max 10 µM, 7x7, partner max 10 µM) | 0.838 | 0.897 | 0.728 | 0.817 | 0.62 | 0.831 | 0.761 | 0.311 | 0.483 | 0.465 | 0.141 | 0.479 | 0.214 | 0.804 | 0.391 | 0.413 | 0.214 | 0.389 | 0.248 | 0.254
9 | Cc1nc(Nc2ncc(C(=O)Nc3c(C)cccc3Cl)s2)cc(N2CCN(CCO)CC2)n1 [Dasatinib] + CC(=O)Nc1cccc(-n2c(=O)n(C3CC3)c(=O)c3c(Nc4ccc(I)cc4F)n(C)c(=O)c(C)c32)c1 [Trametinib] (first compound max 2 µM, 7x7, partner max 1 µM) | 0.708 | 1 | 0.28 | 0.323 | 0.505 | 0.351 | 0.741 | 0.629 | 0.513 | 0.795 | 0.111 | 0.34 | 0.265 | 1 | 0.08 | 0.757 | 0.399 | 0.691 | 0.625 | 0.832
10 | CC1(C)CCC(CN2CCN(c3ccc(C(=O)NS(=O)(=O)c4ccc(NCC5CCOCC5)c([N+](=O)[O-])c4)c(Oc4cnc5[nH]ccc5c4)c3)CC2)=C(c2ccc(Cl)cc2)C1 [Venetoclax] + C1CN(CCC1(C(=O)N[C@@H](CCO)C2=CC=C(C=C2)Cl)N)C3=NC=NC4=C3C=CN4 [Capivasertib] (first compound max 1 µM, 7x7, partner max 3 µM) | 0.988 | 0.359 | 0.941 | 0.743 | 0.416 | 0.193 | 0.492 | 0.254 | 0.258 | 0.171 | 0.179 | 0.5 | 0.235 | 1 | 0.213 | 0.302 | 0.576 | 0.195 | 0.163 | 0.555
11 | CC1(C)CCC(CN2CCN(c3ccc(C(=O)NS(=O)(=O)c4ccc(NCC5CCOCC5)c([N+](=O)[O-])c4)c(Oc4cnc5[nH]ccc5c4)c3)CC2)=C(c2ccc(Cl)cc2)C1 [Venetoclax] + C[C@@H](Nc1cc(F)cc(F)c1)c1cc(C(=O)N(C)C)cc2c(=O)cc(N3CCOCC3)oc12 [AZD8186] (first compound max 1 µM, 7x7, partner max 3 µM) | 0.986 | 0.372 | 0.943 | 0.482 | 0.282 | 0.0327 | 0.796 | 0.142 | 0.0981 | 0.149 | 0.376 | 0.28 | 0.163 | 1 | 0.0877 | 0.243 | 0.452 | 0.117 | 0.163 | 0.471
12 | Cc1cc2ncnn2cc1Nc1ncc2c(n1)n(C1CCOCC1)c(=O)n2C [AZD7648] + C=CCn1c(=O)c2cnc(Nc3ccc(N4CCN(C)CC4)cc3)nc2n1-c1cccc(C(C)(C)O)n1 [AZD1775] (first compound max 10 µM, partner max 1 µM) | 1 | 0.97 | 0.786 | 0.611 | 0.463 | 0.25 | 0.901 | 0.391 | 0.39 | 0.72 | 0.383 | 0.482 | 0.244 | 0.986 | 1 | 0.591 | 0.467 | 0.442 | 0.233 | 0.697
